Laboratory results as given in paper PMC9301698 (ACS Omega, 2022).

Assays:
α-glucosidase [1] = molecular target: T1, α-glucosidase (Saccharomyces cerevisiae, UniProt P53341); experiment: colorimetric α-glucosidase inhibitory assay; format: biochemical; details: mean ± SD
α-amylase = molecular target: T2, α-amylase (Sus scrofa, UniProt P00690); experiment: α-amylase inhibitory assay; format: biochemical; details: at a concentration of 100 μg/mL; mean ± SD
T2 sequence (P00690 16-511): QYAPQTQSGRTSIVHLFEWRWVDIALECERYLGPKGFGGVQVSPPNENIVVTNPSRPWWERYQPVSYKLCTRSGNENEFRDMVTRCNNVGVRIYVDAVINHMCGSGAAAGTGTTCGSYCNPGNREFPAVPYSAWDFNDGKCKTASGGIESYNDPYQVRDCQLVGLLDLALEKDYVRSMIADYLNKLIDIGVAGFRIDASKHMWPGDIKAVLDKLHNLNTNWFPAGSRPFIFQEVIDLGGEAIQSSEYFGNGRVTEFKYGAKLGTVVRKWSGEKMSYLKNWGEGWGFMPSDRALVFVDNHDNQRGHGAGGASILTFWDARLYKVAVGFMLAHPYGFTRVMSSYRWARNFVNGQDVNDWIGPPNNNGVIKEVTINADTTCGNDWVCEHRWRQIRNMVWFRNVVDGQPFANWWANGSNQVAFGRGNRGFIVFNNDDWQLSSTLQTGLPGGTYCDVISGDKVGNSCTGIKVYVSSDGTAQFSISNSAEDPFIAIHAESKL

HepG2 cell lines = details: read-out: cytotoxicity against HepG2 cell lines IC50; cited from earlier work
K562 cells = experiment: MTT cytotoxicity assay, leukemia; format: cell-based, human; details: Homo sapiens, K562, read-out: IC50 K562 (leukemia), MTT
[2] = cytotoxicity screening, summary over cell lines; format: cell-based; details: mouse, human
[3] = MTT cytotoxicity assay, colorectal cancer; format: cell-based, human; details: human, SW480 cells (colorectal cancer)
SW480 cells = experiment: MTT cytotoxicity assay, colorectal cancer; format: cell-based, human; details: Homo sapiens, SW480, read-out: IC50 SW480 (Colorectal cancer), MTT
RAW 264.7 cells = experiment: MTT cytotoxicity assay in mammalian cells; format: cell-based; details: Mus musculus, RAW264.7, read-out: IC50 RAW 264.7, MTT
A549 cells = experiment: MTT cytotoxicity assay, lung cancer; format: cell-based, human; details: Homo sapiens, A549, read-out: IC50 A549 (lung cancer)
[4] = MTT cytotoxicity assay, leukemia; format: cell-based, human; details: human, K562 cells (leukemia)
[5] = MTT cytotoxicity assay in mammalian cells; format: cell-based; details: mouse, RAW 264.7 cells
[6] = MTT cytotoxicity assay, lung cancer; format: cell-based, human; details: human, A549 cells (lung cancer)
HT-29 = details: read-out: cytotoxicity against HT-29 IC50; cited from earlier work
[7] = cited from earlier work
butyrylcholinesterase = details: read-out: butyrylcholinesterase inhibitory activity IC50; cited from earlier work
α-glucosidase [8] = molecular target: T1, α-glucosidase; details: read-out: α-glucosidase inhibitory activity IC50; cited from earlier work

T1 sequence (P53341 whole entry): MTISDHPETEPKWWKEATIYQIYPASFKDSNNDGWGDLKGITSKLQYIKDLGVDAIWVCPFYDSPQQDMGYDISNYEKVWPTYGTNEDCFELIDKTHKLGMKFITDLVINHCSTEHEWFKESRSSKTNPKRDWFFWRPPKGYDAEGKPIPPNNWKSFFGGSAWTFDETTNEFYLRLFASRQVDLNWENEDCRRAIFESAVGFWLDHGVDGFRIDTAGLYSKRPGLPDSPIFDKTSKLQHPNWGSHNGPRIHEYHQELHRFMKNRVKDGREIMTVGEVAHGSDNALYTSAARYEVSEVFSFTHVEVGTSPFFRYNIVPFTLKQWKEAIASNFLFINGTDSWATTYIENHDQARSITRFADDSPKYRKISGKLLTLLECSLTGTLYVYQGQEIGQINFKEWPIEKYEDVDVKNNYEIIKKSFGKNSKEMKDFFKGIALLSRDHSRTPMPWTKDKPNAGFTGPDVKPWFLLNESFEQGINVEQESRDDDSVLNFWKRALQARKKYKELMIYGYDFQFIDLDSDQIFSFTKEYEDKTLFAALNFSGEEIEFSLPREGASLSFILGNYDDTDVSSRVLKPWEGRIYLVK

Compound: C[C@H]1O[C@H](O[C@H]2[C@H](O)[C@@H](O)[C@@H](O[C@H]3[C@H](O)[C@@H](O)C(O)O[C@@H]3CO)O[C@@H]2CO)[C@H](O)[C@@H](O)[C@@H]1N[C@H]1C=C(CO)[C@@H](O)[C@H](O)[C@H]1O (some centres unmarked) [acarbose]
- α-glucosidase inhibition, inhibition rate (%) (α-glucosidase [1]): 57.2 ± 0.8%
- α-amylase inhibition, inhibition rate (%) (α-amylase): 58.5 ± 1.9%

Compound: COc1cc(OC)c(-c2coc3c4c(ccc3c2=O)OC(C)(C)C=C4)cc1OC [barbigerone]
- IC50 (HepG2 cell lines): 0.61 µM

Compound: CC(C)=CCc1c(O)c(CC=C(C)C)c2occ(-c3ccc(O)cc3)c(=O)c2c1O [Compound 10, 6,8-diprenylgenistein]
- IC50 (K562 cells): > 100 µM
- viability ([2]; RAW 264.7 and SW480 cells): 5.66 to 77%
- viability at 6.25 μg/mL [3]: 117.5 ± 0.31%
- viability at 12.5 μg/mL [3]: 118.8 ± 0.92%
- viability at 25 μg/mL [3]: 117 ± 3.08%
- viability at 50 μg/mL [3]: 94.7 ± 3.85%
- viability at 100 μg/mL [3]: 77 ± 3.95%
- IC50 (SW480 cells): > 100 µM
- IC50 (RAW 264.7 cells): > 100 µM
- IC50 (A549 cells): > 100 µM

Compound: COc1cccc2c1C(=O)c1c(O)c3c(c(O)c1C2=O)C[C@@](O)(C(=O)CO)C[C@@H]3O[C@H]1C[C@H](N)[C@H](O)[C@H](C)O1 [doxorubicin, reference compound]
- IC50 (K562 cells): 86.8 µM
- viability at 12.5 μg/mL [4]: 70.3 ± 0.89%
- viability at 25 μg/mL [4]: 59.5 ± 1.8%
- viability at 50 μg/mL [4]: 49.6 ± 2.2%
- viability at 100 μg/mL [4]: 32.4 ± 0.89%
- viability at 6.25 μg/mL [3]: 80 ± 2.48%
- viability at 12.5 μg/mL [3]: 73.9 ± 1.19%
- viability at 25 μg/mL [3]: 60.2 ± 1.51%
- viability at 50 μg/mL [3]: 17.8 ± 1.49%
- viability at 100 μg/mL [3]: 16.8 ± 1.29%
- IC50 (SW480 cells): 53.4 µM
- viability at 24 h, 6.25 μg/mL [5]: 4.62 ± 0.17%
- viability at 24 h, 12.5 μg/mL [5]: 5.35 ± 0.27%
- viability at 24 h, 25 μg/mL [5]: 4.59 ± 0.01%
- viability at 24 h, 50 μg/mL [5]: 4.44 ± 0.08%
- viability at 24 h, 100 μg/mL [5]: 5.96 ± 0.42%
- IC50 (RAW 264.7 cells): < 11.5 µM
- IC50 (A549 cells): 134 µM
- viability at 6.25 μg/mL [6]: 79.6 ± 1.89%
- viability at 12.5 μg/mL [6]: 74 ± 0.75%
- viability at 25 μg/mL [6]: 57.7 ± 1.71%
- viability at 50 μg/mL [6]: 52.8 ± 1.51%
- viability at 100 μg/mL [6]: 10.1 ± 3.11%

Compound: CC(C)=CCc1c2c(c3occ(-c4ccc(O)cc4)c(=O)c3c1O)CC(C(C)(C)O)O2 (centres unmarked) [Compound 16, senegalensin]
- IC50 (K562 cells): 21.5 µM
- viability at 6.25 μg/mL [4]: 76.6 ± 3.38%
- viability at 12.5 μg/mL [4]: 28.8 ± 0.39%
- viability at 25 μg/mL [4]: 11.54 ± 0.06%
- viability at 50 μg/mL [4]: 10.2 ± 0.15%
- viability at 100 μg/mL [4]: 9.7 ± 0.15%
- viability ([2]; A549, SW480, K562 and RAW 264.7 cells): 4.53 to 48.2%
- viability at 6.25 μg/mL [3]: 166 ± 6.12%
- viability at 12.5 μg/mL [3]: 142 ± 1.71%
- viability at 25 μg/mL [3]: 122 ± 6.64%
- viability at 50 μg/mL [3]: 6.6 ± 0.14%
- viability at 100 μg/mL [3]: 6.09 ± 0.11%
- IC50 (SW480 cells): 69.8 µM
- viability at 24 h, 6.25 μg/mL [5]: 154 ± 1.59%
- viability at 24 h, 12.5 μg/mL [5]: 139 ± 6.94%
- viability at 24 h, 25 μg/mL [5]: 58.7 ± 2.23%
- viability at 24 h, 50 μg/mL [5]: 6 ± 0.65%
- viability at 24 h, 100 μg/mL [5]: 5.3 ± 0.01%
- IC50 (RAW 264.7 cells): 51.5 µM
- IC50 (A549 cells): 70.9 µM
- viability at 6.25 μg/mL [6]: 126 ± 1.36%
- viability at 12.5 μg/mL [6]: 116 ± 2.68%
- viability at 25 μg/mL [6]: 97 ± 9.76%
- viability at 50 μg/mL [6]: 6.25 ± 0.33%
- viability at 100 μg/mL [6]: 4.53 ± 0.07%

Compound: C=C(C)[C@H]1Cc2c(ccc3c2O[C@@H]2COc4cc(OC)c(OC)cc4[C@]2(O)C3=O)O1 [(−)-Hydroxyrotenone]
- IC50 (HT-29): 0.1 µM

Compound: C=C(C)[C@H]1Cc2c(ccc3c2O[C@@H]2COc4cc(OC)c(OC)cc4[C@@H]2C3=O)O1 [(−)-rotenone]
- IC50 (HT-29): 0.3 µM

Compound: COc1cc2c(cc1OC)[C@]1(O)C(=O)c3ccc4c(c3O[C@@H]1CO2)C=CC(C)(C)O4 [tephrosin]
- cell toxicity ([7]; at a concentration of 3.125 μM): without cell toxicity
- IC50 ([7]; read-out: anti-inflammatory activity IC50): < 10 µM

Compound: COc1cc2c(cc1OC)[C@@H]1C(=O)c3ccc4c(c3O[C@@H]1CO2)C=CC(C)(C)O4 [deguelin]
- IC50 (butyrylcholinesterase): 14.2 µM

Compound: C=C(C)C(O)Cc1c(O)c(CC=C(C)C)c2occ(-c3ccc(O)cc3)c(=O)c2c1O (centres unmarked) [Compound 13, isoerysenegalensein E]
- IC50 (K562 cells): > 100 µM
- viability ([2]; RAW 264.7 and SW480 cells): 5.66 to 77%
- viability at 6.25 μg/mL [3]: 94 ± 4.18%
- viability at 12.5 μg/mL [3]: 92.8 ± 1.57%
- viability at 25 μg/mL [3]: 90.4 ± 1.91%
- viability at 50 μg/mL [3]: 89.5 ± 3.29%
- viability at 100 μg/mL [3]: 59.5 ± 1.3%
- IC50 (SW480 cells): > 100 µM
- viability at 24 h, 6.25 μg/mL [5]: 103 ± 8.01%
- viability at 24 h, 12.5 μg/mL [5]: 100 ± 2.13%
- viability at 24 h, 25 μg/mL [5]: 61.9 ± 3.12%
- viability at 24 h, 50 μg/mL [5]: 47.3 ± 2.94%
- viability at 24 h, 100 μg/mL [5]: 29.4 ± 3.72%
- IC50 (RAW 264.7 cells): 56.1 µM
- IC50 (A549 cells): > 100 µM

Compound: COc1ccc(-c2coc3c4c(ccc3c2=O)OC(C)(C)C=C4)cc1OC [4′,5′-dimethoxy-6,6-dimethylpyranoisoflavone]
- IC50 (butyrylcholinesterase): 2.34 µM

Compound: berectones A
- IC50 (α-glucosidase [8]): 144 µM
